Experimental data from ChEMBL document CHEMBL1157560, “SAR studies on new bis-aryls 5-HT7 ligands: Synthesis and molecular modeling” (Bioorg Med Chem, 2010).

Target: T1, 5-hydroxytryptamine receptor 1A (Rattus norvegicus, UniProt P19327)
T1 sequence (P19327 whole entry): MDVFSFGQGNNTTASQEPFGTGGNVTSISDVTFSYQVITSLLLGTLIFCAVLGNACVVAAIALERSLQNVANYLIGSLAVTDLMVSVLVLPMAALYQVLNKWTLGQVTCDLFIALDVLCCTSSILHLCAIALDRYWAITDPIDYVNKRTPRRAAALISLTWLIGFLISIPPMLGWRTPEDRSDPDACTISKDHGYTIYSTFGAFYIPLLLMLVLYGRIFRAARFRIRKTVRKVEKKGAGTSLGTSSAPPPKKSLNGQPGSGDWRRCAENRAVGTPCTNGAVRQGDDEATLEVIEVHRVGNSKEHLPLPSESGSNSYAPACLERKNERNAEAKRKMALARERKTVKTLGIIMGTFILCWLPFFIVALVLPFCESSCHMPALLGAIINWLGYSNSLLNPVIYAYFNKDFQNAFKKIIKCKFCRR
Assay: Displacement of [3H]8-OH-DPAT from 5HT1A receptor in rat hippocampus
Type: tissue-based

| Ki [nM] | SMILES |
| --- | --- |
| 676 | CN(C)CCSc1cccc(Br)c1 |
| 7220 | Cc1cccc(C)c1-c1cccc(OCCN(C)C)n1 |
| 2350 | Cc1cccc(C)c1-c1cccc(SCCN(C)C)c1 |
| 516 | CN(C)CCSc1cccc(-c2ccccc2)c1 |
| 28 | CN(C)CCSc1cccc(-c2ccoc2)n1 |
| 133 | CN(C)CCSc1cccc(Br)n1 |
| 43 | CN(C)CCSc1cccc(-c2ccccc2)n1 |
| 927 | Cc1cccc(C)c1-c1cccc(SCCN(C)C)n1 |

| SMILES | Ki [nM] |
| --- | --- |
| CN(C)CCOc1cccc(Br)n1 | 902 |

Target: 5-hydroxytryptamine receptor 7 (Homo sapiens, UniProt P34969)
Assay: Displacement of [3H]5CT from human cloned 5HT7B receptor expressed in HEK293 cells
Type: cell-based

5-hydroxytryptamine receptor 7, sequence (P34969 whole entry): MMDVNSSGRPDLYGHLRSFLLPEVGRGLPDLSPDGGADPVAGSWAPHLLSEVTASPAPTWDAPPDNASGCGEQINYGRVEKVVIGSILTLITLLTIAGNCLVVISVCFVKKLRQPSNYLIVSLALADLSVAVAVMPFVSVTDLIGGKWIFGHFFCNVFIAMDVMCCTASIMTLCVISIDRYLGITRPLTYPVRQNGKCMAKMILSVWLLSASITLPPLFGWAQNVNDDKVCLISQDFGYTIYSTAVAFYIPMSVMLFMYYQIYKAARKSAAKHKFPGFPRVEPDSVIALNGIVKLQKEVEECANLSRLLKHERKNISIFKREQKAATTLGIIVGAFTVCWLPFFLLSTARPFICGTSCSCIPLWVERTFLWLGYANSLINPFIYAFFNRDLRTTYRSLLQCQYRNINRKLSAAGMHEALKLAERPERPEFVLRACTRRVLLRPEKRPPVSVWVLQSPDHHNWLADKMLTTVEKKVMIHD

| Ki [nM] | SMILES |
| --- | --- |
| > 10000 | CN(C)CCc1nncc(-c2ccccc2)n1 |
| 1610 | Cc1cccc(C)c1-c1cccc(OCCN(C)C)n1 |
| 156 | CN(C)CCOc1ccccc1-c1ccccc1 |
| 26 | CN(C)CCSc1cccc(-c2ccoc2)n1 |
| 0.3 | CCCN(CCC)[C@H]1CCc2c(cccc2-c2cccc3ccccc23)C1 |
| > 10000 | Cc1cccc(C)c1-c1cnnc(CCN(C)C)n1 |
| 1480 | COc1cccc(OC)c1-c1ccnc(CCN(C)C)n1 |
| 2.55 | COc1cccc(OC)c1-c1cccc2c1OC[C@H](N(C)C)C2 |
| 553 | CN(C)CCSc1ccccc1-c1ccccc1 |
| 669 | COc1ccccc1-c1ccccc1OCCN(C)C |
| 3.38 | CCCN(CCC)[C@H]1COc2c(cccc2-c2ccccc2)C1 |
| 2660 | CN(C)CCOc1ccccc1Br |
| 37 | CN(C)CCSc1cccc(Br)n1 |
| 4110 | CN(C)CCSc1ccccc1Br |
| > 10000 | COc1cccc(OC)c1-c1cnnc(CCN(C)C)n1 |
| 1430 | Cc1cccc(C)c1-c1ccccc1SCCN(C)C |
| 128 | Cc1cccc(C)c1-c1cccc(SCCN(C)C)n1 |
| 13.4 | Cc1cccc(C)c1-c1ccc2c(c1)C[C@H](N(C)C)CO2 |

| SMILES | Ki [nM] |
| --- | --- |
| CCCN(CCC)[C@H]1CCc2c(cccc2-c2ccccc2)C1 | 2.91 |
